Assay results from patent US20060079453A1, “Hla binding peptides and their uses” (priority 2002, published 2006).
Where “and” joins values, the source holds several entries; their conditions need not be identical. Equal values may be shown once. Read-outs that look alike come from different tables or passages of the source. No end group written: not given here.

What was measured:
Assay in all cases: biochemical
HLA-B*1801 = HLA-B*1801 (Homo sapiens, UniProt P01889, A329T/A93T/A95T/C349S/D201E/D54G/D98Y/E176V/E187T/E204Q/E69T/K202T/Q94N/R155S/R180L/S121R/V306I/Y140S/Y195H/Y33H/Y91S); type: binding; conditions: B*1801
HLA-B*4402 = HLA-B*4402 (Homo sapiens, UniProt P01889, A223V/A65T/A93T/A95T/D201E/D98Y/E176V/E187L/E204Q/E69K/G107R/H137Y/K202T/L105A/L119I/N104T/N87E/Q56L/Q94N/R106L/R155S/R180D/S101N/S121R/S35A/S48T/T118I/V36M/W191S/Y140D/Y91S); type: binding; conditions: B*4402
HLA-B*4403 = HLA-B*4403 (Homo sapiens, UniProt P01889, A223V/A65T/A93T/A95T/D201E/D98Y/E176V/E187L/E204Q/E69K/G107R/H137Y/K202T/L105A/L119I/N104T/N87E/Q56L/Q94N/R106L/R155S/R180L/S101N/S121R/S35A/S48T/T118I/V36M/W191S/Y140D/Y91S); type: binding; conditions: B*4403
H-2Kk = H-2Kk (Mus musculus, UniProt P04223); type: binding, murine
H-2Kk, sequence (P04223 22-369): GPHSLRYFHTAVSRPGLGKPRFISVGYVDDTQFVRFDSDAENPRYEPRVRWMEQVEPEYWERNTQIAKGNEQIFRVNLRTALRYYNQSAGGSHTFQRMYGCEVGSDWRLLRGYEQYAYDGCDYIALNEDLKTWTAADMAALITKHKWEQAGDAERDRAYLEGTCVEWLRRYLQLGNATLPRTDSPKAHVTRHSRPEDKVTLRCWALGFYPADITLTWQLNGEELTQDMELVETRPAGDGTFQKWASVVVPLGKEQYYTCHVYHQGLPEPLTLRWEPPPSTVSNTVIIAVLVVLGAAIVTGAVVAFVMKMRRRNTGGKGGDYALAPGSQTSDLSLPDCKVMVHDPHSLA
H-2Kk, sequence (P61769 21-119, further chain): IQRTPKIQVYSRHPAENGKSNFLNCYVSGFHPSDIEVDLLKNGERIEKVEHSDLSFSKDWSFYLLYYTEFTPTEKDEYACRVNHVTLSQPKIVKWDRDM

HLA-B*4001 = HLA-B*4001 (Homo sapiens, UniProt P01889, A65T/A93T/A95T/D138N/D98Y/E176V/E69K/N87E/Q56L/Q94N/R180L/S121R/S35A/S48T/T167S/V36M/W171L/Y33H/Y91S); type: binding; conditions: B*4001
HLA-B*4002 = HLA-B*4002 (Homo sapiens, UniProt P01889, A65T/A93T/A95T/D138N/D201E/D98Y/E176V/E204Q/E69K/K202T/N87E/Q56L/Q94N/R180L/S48T/Y33H/Y91S); type: binding; conditions: B*4002
HLA-B*4501 = HLA-B*4501 (Homo sapiens, UniProt P01889, A329T/A65T/A93T/A95T/C349S/D138N/D201E/D98Y/E176V/E187L/E204Q/E69K/H137Y/K202T/L119W/N87E/Q56L/Q94N/R155S/R180D/S121R/S35A/S48T/V127L/V306I/V36M/W191S/Y140L/Y33H/Y91S); type: binding; conditions: read-out: B*4501
H-2Ld = H-2Ld (Mus musculus, UniProt P01897); type: binding, murine
H-2Ld, sequence (P01897 25-362): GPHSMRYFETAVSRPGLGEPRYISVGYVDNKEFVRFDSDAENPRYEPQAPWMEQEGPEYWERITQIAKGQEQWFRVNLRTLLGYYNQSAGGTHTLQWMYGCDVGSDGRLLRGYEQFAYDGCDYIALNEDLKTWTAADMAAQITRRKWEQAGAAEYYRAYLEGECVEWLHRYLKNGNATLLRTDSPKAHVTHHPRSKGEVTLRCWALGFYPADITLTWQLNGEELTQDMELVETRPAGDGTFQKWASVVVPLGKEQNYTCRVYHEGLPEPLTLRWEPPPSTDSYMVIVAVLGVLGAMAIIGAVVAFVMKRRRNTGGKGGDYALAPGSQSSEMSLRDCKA
H-2Ld, sequence (P61769 21-119, further chain): as the sequence (P61769 21-119, further chain) above

H-2 Db = H-2 Db (Mus musculus, UniProt P01899); type: binding, murine; conditions: Db
H-2 Db, sequence (P61769 21-119): as the sequence (P61769 21-119, further chain) above
H-2 Db, sequence (P01899 25-362): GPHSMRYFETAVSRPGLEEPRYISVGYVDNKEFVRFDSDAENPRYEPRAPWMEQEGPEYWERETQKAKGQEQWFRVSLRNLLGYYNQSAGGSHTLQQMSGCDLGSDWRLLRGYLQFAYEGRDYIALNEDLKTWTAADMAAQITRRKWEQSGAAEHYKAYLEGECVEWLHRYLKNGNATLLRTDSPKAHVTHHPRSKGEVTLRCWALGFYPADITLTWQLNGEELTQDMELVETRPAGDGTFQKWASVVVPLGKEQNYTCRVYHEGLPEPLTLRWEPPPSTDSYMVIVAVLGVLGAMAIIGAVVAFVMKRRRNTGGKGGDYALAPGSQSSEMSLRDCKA

HLA-B*0702 = HLA-B*0702 (Homo sapiens, UniProt P01889); type: binding
HLA-B*3501 = HLA-B*3501 (Homo sapiens, UniProt P01889, A329T/A93T/A95T/C349S/D201E/D98Y/E176V/E187L/E204Q/E69T/I218V/K202T/L119I/Q94N/R155S/R180L/S121R/S35A/S48A/T118I/V127L/V306I/V36M/Y140S/Y91F); conditions: B*3501 binding affinity (IC50)
HLA-B*5101 = HLA-B*5101 (Homo sapiens, UniProt P01889, A329T/A93T/A95T/C349S/D138N/D201E/D98Y/E187L/E204Q/E69T/G107R/I218V/K202T/L105A/L119W/N104I/Q94N/R106L/R155S/R180L/S101N/S121T/S35A/S48A/V306I/V36M/Y195H/Y91F); conditions: B*5101 binding affinity (IC50)
HLA-B*5301 = HLA-B*5301 (Homo sapiens, UniProt P01889, A329T/A93T/A95T/C349S/D201E/D98Y/E176V/E187L/E204Q/E69T/G107R/I218V/K202T/L105A/L119I/N104I/Q94N/R106L/R155S/R180L/S101N/S121R/S35A/S48A/T118I/V127L/V306I/V36M/Y140S/Y91F); type: binding
HLA-B*5401 = HLA-B*5401 (Homo sapiens, UniProt P01889, A329T/C349S/D138N/D201E/E176V/E187T/E204Q/E69G/I76V/K202T/L119W/R155S/R180L/S121T/S35A/S48A/V127L/V306I/V36M/Y140L); type: binding

YENDIEKKI
IC50 (HLA-B*1801): 31 µM | IC50 (HLA-B*4402): 1730 nM | IC50 (HLA-B*4403): 371 nM | IC50 (H-2Kk): 3.8 nM

YEDTGKTI
IC50 (HLA-B*1801): 14 µM | IC50 (HLA-B*4001): 794 nM | IC50 (HLA-B*4002): 83 nM | IC50 (HLA-B*4402): 7910 nM | IC50 (HLA-B*4501): 49 µM | IC50 (H-2Kk): 0.86 nM

EEKHEKKHV
IC50 (H-2Kk): 284 nM

SEAAYAKKI
IC50 (HLA-B*1801): 8.61 µM | IC50 (HLA-B*4001): 308 nM | IC50 (HLA-B*4402): 1680 nM | IC50 (HLA-B*4403): 61 nM | IC50 (H-2Kk): 3.9 nM

RPQASQVYM
IC50 (H-2Ld; Ld): 3.8 nM

RPQASGVYM
IC50 (H-2 Db): > 44000 nM | IC50 (H-2Ld; Ld): 0.99 nM and 3 nM

CC(C)C[C@H](NC(=O)[C@@H]1CCCN1C(=O)[C@@H](NC(=O)[C@H](CCC(N)=O)NC(=O)[C@@H]1CCCN1C(=O)[C@H](CCCNC(=N)N)NC(=O)[C@@H](NC(=O)[C@@H]1CCCN1C(=O)[C@@H](N)Cc1ccccc1)C(C)C)C(C)C)C(=O)O
IC50 (HLA-B*0702; B*0702 binding affinity (IC50)): 17 nM | IC50 (HLA-B*3501): 3.8 nM | IC50 (HLA-B*5101): 18 nM | IC50 (HLA-B*5301; B*5301 binding affinity (IC50)): 49 nM | IC50 (HLA-B*5401; B*5401 binding affinity (IC50)): 0.021 µM

TPAIRGPGPGF
IC50 (HLA-B*0702; read-out: B*0702 binding affinity (IC50)): 144 nM | IC50 (HLA-B*5301; read-out: B*5301 binding affinity (IC50)): 2740 nM | IC50 (HLA-B*5401; read-out: B*5401 binding affinity (IC50)): 31.8 µM

SPGPGPGL
IC50 (HLA-B*0702; B*0702 binding affinity (IC50)): 173 nM | IC50 (HLA-B*3501): 2340 nM | IC50 (HLA-B*5101): 3540 nM | IC50 (HLA-B*5301; B*5301 binding affinity (IC50)): 25600 nM | IC50 (HLA-B*5401; B*5401 binding affinity (IC50)): 53.3 µM

NEEPSDKHI
IC50 (H-2Kk): 40 nM

FPVGPGPGL
IC50 (HLA-B*3501): 14 nM | IC50 (HLA-B*5101): 138 nM | IC50 (HLA-B*5301; B*5301 binding affinity (IC50)): 32 nM | IC50 (HLA-B*5401; B*5401 binding affinity (IC50)): 0.246 µM

VESENKVV
IC50 (H-2Kk): 349 nM

CC(C)C[C@H](NC(=O)[C@H](Cc1c[nH]cn1)NC(=O)[C@H](CCCNC(=N)N)NC(=O)[C@H](CCC(N)=O)NC(=O)[C@H](CCCCN)NC(=O)[C@H](CCC(=O)O)NC(=O)[C@H](CCC(=O)O)NC(=O)[C@@H]1CCCN1C(=O)[C@@H](N)CS)C(=O)O
IC50 (HLA-B*0702; B*0702 binding affinity (IC50)): 10 nM | IC50 (HLA-B*3501): > 52600 nM | IC50 (HLA-B*5101): > 35500 nM | IC50 (HLA-B*5301; B*5301 binding affinity (IC50)): > 109000 nM | IC50 (HLA-B*5401; B*5401 binding affinity (IC50)): > 76.9 µM

YPHFMLPTNL
IC50 (H-2Ld; read-out: Ld): 7.5 nM

CSCC[C@H](NC(=O)[C@@H](NC(=O)[C@H](C)NC(=O)[C@H](Cc1ccccc1)NC(=O)[C@H](CC(N)=O)NC(=O)[C@H](Cc1ccc(O)cc1)NC(=O)[C@@H](NC(=O)[C@H](C)NC(=O)[C@@H](N)CCCCN)C(C)C)[C@@H](C)O)C(=O)O
IC50 (H-2Ld; Ld): > 27000 nM

TPAGPGPGVF
IC50 (HLA-B*0702; B*0702 binding affinity (IC50)): 334 nM | IC50 (HLA-B*3501): 374 nM | IC50 (HLA-B*5301; B*5301 binding affinity (IC50)): 2630 nM

KAVYNAATM
IC50 (H-2 Db): 2 nM | IC50 (H-2Ld; Ld): > 27000 nM

RPQGSGVYM
IC50 (H-2Ld; Ld): 39 nM

TPTGWGLAI
IC50 (HLA-B*0702; B*0702 binding affinity (IC50)): 76 nM | IC50 (HLA-B*3501): 5140 nM | IC50 (HLA-B*5301; B*5301 binding affinity (IC50)): 1340 nM

LPPLERLTI
IC50 (HLA-B*0702; B*0702 binding affinity (IC50)): 24400 nM | IC50 (HLA-B*3501): 13400 nM | IC50 (HLA-B*5101): 359 nM | IC50 (HLA-B*5301; B*5301 binding affinity (IC50)): 2620 nM | IC50 (HLA-B*5401; B*5401 binding affinity (IC50)): 11.2 µM

FPLTFGWCI
IC50 (HLA-B*0702; B*0702 binding affinity (IC50)): 48000 nM | IC50 (HLA-B*3501): 164 nM | IC50 (HLA-B*5101): 63 nM | IC50 (HLA-B*5301; B*5301 binding affinity (IC50)): 36 nM | IC50 (HLA-B*5401; B*5401 binding affinity (IC50)): 0.014 µM
